Where two headings read alike, the source gives them in different places.
Columns and labels:
PIM1 = PIM1 (Homo sapiens (Human), UniProt P11309); experiment: Pim kinase binding activity, Caliper LC3000 microfluidic peptide phosphorylation assay (Example 901); format: biochemical; details: 20 pM PIM1, 1 μM FAM-peptide, 10 μM ATP, 90 minutes at room temperature; read-out: PIM1 LC3K (KI)
Experimental: (§1) PIM-1, -2, and -3 enzymes were generated as fusion proteins expressed in bacteria and purified by IMAC column chromatography (Sun, X., Chiu, J. F., and He, Q. Y. (2005) Expert Rev. Proteomics, 2:649-657). A fluorescent-labeled Pim-specific peptide substrate, was custom synthesized by American Peptide Company (Sunnyvale, Calif.). Reaction Buffer contained 10 mM HEPES, pH 7.2, 10 mM MgCl2, 0.01% Tween 20, 2 mM DTT. Termination Buffer contained 190 mM HEPES, pH 7.2, 0.015% Brij-35, 0.2% Coating Reagent 3 (Caliper Life Sciences, Hopkinton, Mass.), 20 mM EDTA. Separation Buffer contained 100 mM HEPES, pH 7.2, 0.015% Brij-35, 0.1% Coating Reagent 3, 1:200 Coating Reagent 8 (Caliper Life Sciences, Hopkinton, Mass.), 10 mM EDTA and 5% DMSO.
(§2) PIM reactions were carried out in a final volume of 10 μL per well in a 384-well plate. A standard enzymatic reaction, initiated by the addition of 5 μL 2×ATP and test compound to 5 μL of 2× enzyme and FAM-peptide, contained 20 pM PIM1, 50 pM PIM2, or 55 pM PIM3, 1 μM FAM-peptide, and 10 μM ATP, in Reaction Buffer. After 90 minutes of incubation at room temperature, the phosphorylation reaction was stopped by the addition of 10 μL Termination Buffer. The product and substrate in each independent reaction were separated on a 12-sipper microfluidic chip (Caliper Life Sciences, Hopkinton, Mass.) run on a Caliper LC3000® (Caliper Life Sciences, Hopkinton, Mass.). The separation of product and substrate was optimized by choosing voltages and pressure using Caliper's Optimizer software (Hopkinton, Mass.). The separation conditions used a downstream voltage of −500V, an upstream voltage of −2150V, and a screening pressure of −1.2 psi. The product and substrate fluorophore were excited at 488 nm and detected at 530 nm. Substrate conversion was calculated from the electropherogram using HTS Well Analyzer software (Caliper Life Sciences, Hopkinton, Mass.). Ki values for the test compound were calculated.

PIM3 = PIM3 (Homo sapiens (Human), UniProt Q86V86); experiment: as above; format: biochemical; details: 55 pM PIM3, 1 μM FAM-peptide, 10 μM ATP, 90 minutes at room temperature; read-out: PIM3 LC3K (KI)
Experimental: as §1, §2

PIM2 = PIM2 (Homo sapiens (Human), UniProt Q9P1W9); experiment: as above; format: biochemical; details: 50 pM PIM2, 1 μM FAM-peptide, 10 μM ATP, 90 minutes at room temperature; read-out: PIM2 LC3K (KI)
Experimental: as §1, with “A” for “PIM-1, -2, and -3 enzymes were generated as fusion proteins expressed in bacteria and purified by IMAC column chromatography (Sun, X., Chiu, J. F., and He, Q. Y. (2005) Expert Rev. Proteomics, 2:649-657). A”
as §2, with “A standard enzymatic reaction, initiated by the addition of 5 μL 2×ATP and test compound to 5 μL of 2× enzyme and FAM-peptide, contained 20 pM PIM1, 50 pM PIM2, or 55 pM PIM3, 1 μM FAM-peptide, and 10 μM ATP, in Reaction Buffer.” left out, “The product and substrate fluorophore were excited at 488 nm and detected at 530 nm.” left out

BaF3 PIM1 cells = experiment: In vitro cell proliferation potency assay, Cell Titer Glo (Example 902); format: cell-based, murine; details: Mus musculus
Experimental: (§3) BaF3 parental line was obtained from the DSMZ repository. BaF3 lines transfected with PIM 1 or PIM2 were generated. Mouse IL-3 was purchased from R&D Systems. G418 was purchased from Clontech. Media for BaF3 parental line contained RPMI, 10% FBS, 2 mM L-Glutamine, 2 ng/mL mIL-3. Media for BaF3 PIM1 & 2 lines contained RPMI, 10% FBS, 2 mM L-Glutamine, […]. Media for MM1.S (multiple myeloma cells) line contained RPMI, 10% FBS, 2 mM L-Glutamine.
(§4) BaF3, a murine interleukin-3 dependent pro-B cell line, parental cells, BaF3 PIM1 cells, BaF3 PIM2 cells, and MM1.S (multiple myeloma) cells were seeded at 2 k/well, 5 k/well, 5 k/well, and 10 k/well respectively, in a 384-well plate, at 45 μL/well. Test compound was added at 5 μL/well. BaF3 cells (parental and transfected) were incubated overnight, while MM1.S cells were incubated for 72 hours at 37° C., 5% CO2. Cell Titer Glo Reagent (Promega) was added at 50 μL/well, the plates were incubated for 30 minutes, and their luminescence read on an HT Analyst. IC50/EC50 values for the test compound were calculated.

BaF3 parental cells = experiment: as above; format: cell-based, murine; details: Mus musculus
Experimental: as §3, §4

PIM2, sequence (Q9P1W9 whole entry, the tested form may be a part): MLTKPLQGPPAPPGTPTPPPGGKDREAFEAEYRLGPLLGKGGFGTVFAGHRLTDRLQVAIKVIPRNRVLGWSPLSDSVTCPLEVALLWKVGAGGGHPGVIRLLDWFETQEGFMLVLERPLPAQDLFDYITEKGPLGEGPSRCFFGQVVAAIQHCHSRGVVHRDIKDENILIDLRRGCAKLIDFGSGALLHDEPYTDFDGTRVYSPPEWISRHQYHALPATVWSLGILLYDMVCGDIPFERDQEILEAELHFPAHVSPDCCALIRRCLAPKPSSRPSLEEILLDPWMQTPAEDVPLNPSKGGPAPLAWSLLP
PIM1, sequence (P11309 whole entry, the tested form may be a part): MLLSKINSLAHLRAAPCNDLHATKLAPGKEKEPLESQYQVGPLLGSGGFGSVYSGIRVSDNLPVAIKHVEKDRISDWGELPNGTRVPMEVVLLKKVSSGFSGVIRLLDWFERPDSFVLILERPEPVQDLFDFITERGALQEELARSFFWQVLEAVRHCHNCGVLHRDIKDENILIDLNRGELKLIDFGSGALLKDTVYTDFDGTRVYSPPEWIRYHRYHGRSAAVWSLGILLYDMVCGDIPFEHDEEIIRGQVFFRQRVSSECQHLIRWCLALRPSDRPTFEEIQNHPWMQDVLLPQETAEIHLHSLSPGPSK

Row | SMILES | Ki (PIM1) | Ki (PIM3) | Ki (PIM2) | IC50 (BaF3 PIM1 cells; BaF3 line transfected with PIM1, incubated overnight, read-out: Prolif BaF3 PIM1 (IC50)) | IC50 (BaF3 PIM1 cells; BaF3, read-out: Prolif BaF3 PIM1 (IC50)) | IC50 (BaF3 parental cells; BaF3, read-out: Prolif BaF3 IL3 (IC50)) | IC50 (BaF3 parental cells; BaF3 parental line, medium with 2 ng/mL mIL-3, incubated overnight, read-out: Prolif BaF3 IL3 (IC50))
1 | Cn1cc(NC(=O)c2nc(-c3c(F)cccc3F)sc2N)cn1 [Example 102, 5-amino-2-(2,6-difluorophenyl)-N-(1-methyl-1H-pyrazol-4-yl)thiazole-4-carboxamide] | 16 nM | 8.8 nM | 110 nM | – | – | – | –
2 | Cn1ncc(NC(=O)c2nc(-c3ccccc3F)ccc2N)c1OCC1CCNCC1 [Example 117, 3-amino-6-(2-fluorophenyl)-N-(1-methyl-5-(piperidin-4-ylmethoxy)-1H-pyrazol-4-yl)picolinamide] | – | – | – | – | 4900 nM | > 25000 nM | –
3 | Cn1ncc(NC(=O)c2nc(Cl)cnc2N)c1N1CCC[C@H](N)C1 [Example 123, (S)-3-amino-N-(5-(3-aminopiperidin-1-yl)-1-methyl-1H-pyrazol-4-yl)-6-chloropyrazine-2-carboxamide] | 137 nM | 215 nM | 587 nM | – | – | – | –
4 | Cn1ncc(NC(=O)c2nc(-c3c(F)cccc3F)sc2N)c1N1CCC(CN)CC1 [Example 133, 5-amino-N-(5-(4-(aminomethyl)piperidin-1-yl)-1-methyl-1H-pyrazol-4-yl)-2-(2,6-difluorophenyl)thiazole-4-carboxamide] | – | – | – | 258 nM | – | – | 25000 nM
5 | Cn1ncc(NC(=O)c2cncc(-c3ccccc3F)n2)c1N1CCC[C@H](N)CC1 [Example 220, (S)—N-(5-(4-aminoazepan-1-yl)-1-methyl-1H-pyrazol-4-yl)-6-(2-fluorophenyl)pyrazine-2-carboxamide] | 22 nM | 34.2 nM | 581 nM | – | – | – | –
6 | Cn1ncc(NC(=O)c2nc(-c3c(F)cccc3F)sc2N)c1C1CCNCC1 [Example 263, 5-amino-2-(2,6-difluorophenyl)-N-(1-methyl-5-(piperidin-4-yl)-1H-pyrazol-4-yl)thiazole-4-carboxamide] | 10.4 nM | 6.12 nM | 185 nM | – | – | – | –
7 | Nc1sc(-c2c(F)cccc2F)nc1C(=O)Nc1cnn(CCF)c1 [Example 353, 5-amino-2-(2,6-difluorophenyl)-N-(1-(2-fluoroethyl)-1H-pyrazol-4-yl)thiazole-4-carboxamide] | 11.9 nM | 19 nM | 38 nM | – | – | – | –
8 | CCn1ncc(NC(=O)c2nc(-c3ccccc3F)sc2N)c1N1CCC[C@@H](N)CC1 [Example 364, (R)-5-Amino-N-(5-(4-aminoazepan-1-yl)-1-ethyl-1H-pyrazol-4-yl)-2-(2-fluorophenyl)thiazole-4-carboxamide] | 20 nM | 24 nM | 124 nM | – | – | – | –

Second part, led by results:

Row | Ki (PIM1) | Ki (PIM3) | Ki (PIM2) | IC50 (BaF3 PIM1 cells; BaF3 line transfected with PIM1, incubated overnight, read-out: Prolif BaF3 PIM1 (IC50)) | SMILES | IC50 (BaF3 PIM1 cells; BaF3, read-out: Prolif BaF3 PIM1 (IC50)) | IC50 (BaF3 parental cells; BaF3, read-out: Prolif BaF3 IL3 (IC50)) | IC50 (BaF3 parental cells; BaF3 parental line, medium with 2 ng/mL mIL-3, incubated overnight, read-out: Prolif BaF3 IL3 (IC50))
9 | 4.54 nM | 5.77 nM | 148 nM | – | Cn1ncc(NC(=O)c2nc(-c3c(F)cccc3F)sc2N)c1NCC1CCNCC1 [Example 105, 5-amino-2-(2,6-difluorophenyl)-N-(1-methyl-5-(piperidin-4-ylmethylamino)-1H-pyrazol-4-yl)thiazole-4-carboxamide] | – | – | –
10 | 1.22 nM | 0.575 nM | 20.1 nM | – | Cn1ncc(NC(=O)c2nc(-c3ccccc3F)sc2N)c1N1CCC[C@H](N)C1 [Example 107, (S)-5-amino-N-(5-(3-aminopiperidin-1-yl)-1-methyl-1H-pyrazol-4-yl)-2-(2-fluorophenyl)thiazole-4-carboxamide] | – | – | –
11 | 0.762 nM | 2.63 nM | 41.1 nM | – | Cn1ncc(NC(=O)c2nc(-c3ccccc3)ccc2N)c1N1CCC(N)CC1 [Example 109, 3-amino-N-(5-(4-aminopiperidin-1-yl)-1-methyl-1H-pyrazol-4-yl)-6-phenylpicolinamide] | – | – | –
12 | 0.246 nM | 0.34 nM | 2.49 nM | – | Cn1ncc(NC(=O)c2nc(-c3ccccc3F)ccc2N)c1N1CCC[C@@H](N)C1 [Example 112, (R)-3-amino-N-(5-(3-aminopiperidin-1-yl)-1-methyl-1H-pyrazol-4-yl)-6-(2-fluorophenyl)picolinamide] | – | – | –
13 | 4.36 nM | 4.97 nM | 26.2 nM | – | Cn1ncc(NC(=O)c2nc(-c3ccccc3F)ccc2N)c1OC1CCNCC1 [Example 116, 3-amino-6-(2-fluorophenyl)-N-(1-methyl-5-(piperidin-4-yloxy)-1H-pyrazol-4-yl)picolinamide] | – | – | –
14 | – | 3.79 nM | 28.5 nM | – | Cn1ncc(NC(=O)c2nc(-c3ccccc3F)ccc2N)c1N1CC[C@@H](N)C1 [Example 124, (R)-3-amino-N-(5-(3-aminopyrrolidin-1-yl)-1-methyl-1H-pyrazol-4-yl)-6-(2-fluorophenyl)picolinamide] | – | – | –
15 | 0.368 nM | 0.245 nM | 3.13 nM | – | Cn1ncc(NC(=O)c2nc(-c3ccccc3F)ccc2N)c1N1CCC[C@H](N)CC1 [Example 142, (S)-3-amino-N-(5-(4-aminoazepan-1-yl)-1-methyl-1H-pyrazol-4-yl)-6-(2-fluorophenyl)picolinamide] | – | – | –
16 | 7.65 nM | 5.26 nM | 201 nM | – | CN1CCC(c2c(NC(=O)c3nc(-c4c(F)cccc4F)sc3N)cnn2C)CC1 [Example 231, 5-amino-2-(2,6-difluorophenyl)-N-(1-methyl-5-(1-methylpiperidin-4-yl)-1H-pyrazol-4-yl)thiazole-4-carboxamide] | – | – | –
17 | 0.897 nM | 2.48 nM | 17.3 nM | – | Cn1ncc(NC(=O)c2ccc(F)c(-c3c(F)cccc3F)n2)c1N1CCC[C@@H](N)CC1 [Example 238, (R)—N-(5-(4-aminoazepan-1-yl)-1-methyl-1H-pyrazol-4-yl)-6-(2,6-difluorophenyl)-5-fluoropicolinamide] | – | – | –
18 | 0.096 nM | 0.176 nM | 4.37 nM | – | CN[C@H]1CCCN(c2c(NC(=O)c3nc(-c4c(F)cccc4F)sc3N)cnn2C)CC1 [Example 328, (S)-5-amino-2-(2,6-difluorophenyl)-N-(1-methyl-5-(4-(methylamino)azepan-1-yl)-1H-pyrazol-4-yl)thiazole-4-carboxamide] | – | – | –
19 | 0.462 nM | 0.735 nM | 12.5 nM | – | Cn1ncc(NC(=O)c2nc(-c3c(F)cccc3F)sc2N)c1C1CCC(N)CC1 (stereo not drawn) [Example 369, 5-amino-N-(5-(4-aminocyclohexyl)-1-methyl-1H-pyrazol-4-yl)-2-(2,6-difluorophenyl)thiazole-4-carboxamide] | – | – | –

Reference: US8669361B2, “Pyrazol-4-yl-heterocyclyl-carboxamide compounds and methods of use” (Genentech, Inc., priority 2010, dated 2014)
